Assay results from patent US20140148446A1, “COMPOUNDS THAT ENABLE ALTERNATIVE MITOCHONDRIAL ELECTRON TRANSFER” (University of North Texas Health Science Center, priority 2010, published 2014).

How the values were obtained:
HT-22 cells [1] = assay: Protection against mitochondrial membrane potential collapse induced by glutamate in HT-22 cells; type: cell-based; conditions: for Potency and efficacy of the protective action on mitochondrial membrane potential collapse (FIG. 12): compared with methylene blue
HT-22 cells [2] = assay: Protection against cell death (cell viability) induced by glutamate in HT-22 cells; type: cell-based; conditions: for Potency and efficacy of the protective action on cell viability (FIG. 10): glutamate toxicity, compared with methylene blue
Protocol: HT-22 cells (gift from Dr. David Schubert, Salk Institute, San Diego, Calif.) were plated at 4,000 cells per well in 96 well plates and cultured over night. […] At the end of the 24 hours, the medium was removed and the plates were rinsed with PBS and incubated with 10 μM calcein-AM (Invitrogen, Carlsbad, Calif.) in PBS for 20 minutes. […] Cell culture wells treated with bleach before rinsing were used as blank.

HT-22 cells [3] = assay: Protection against ROS production induced by glutamate in HT-22 cells; type: cell-based; conditions: for Potency and efficacy of the protective action on reactive oxygen species production (FIG. 11): compared with methylene blue
[4] = test system: mitochondrial complex I-III; type: biochemical, rat; conditions: for Inhibition of complex I-III activity: inhibitor alone
Protocol: (§1) Fresh rat heart was removed and placed in ice-cold mitochondrial isolation buffer containing 210 mM mannitol, 70 mM sucrose, 5 mM HEPES, and 1 mM EDTA, pH 7. The heart was homogenized immediately, and the mitochondrial fraction was isolated by differential centrifugation as described previously (Trounce et al., 1996). Mitochondria were stored at −80° C. until subsequent analysis.
(§2) All mitochondrial activity assays were performed according to previous publications with minimal modifications for complex I (Lenaz et al., 2004), complex I-III, complex II, complex III, and II-III (Trounce et al., 1996). […] Complex I activity was monitored by adding NADH to the mix with or without rotenone/antimycin A. The final data were normalized to blank values at time zero. The reaction was monitored in a kinetic spectrophotometer at 340 nm. Complex I activity was measured in arbitrary units and normalized to control levels for statistical analysis. Isolated mitochondria equivalent to 40-200 μg mitochondrial protein was used for each assay, except for assays with inhibitors, when larger amount of mitochondria (3 to 5 folds) were used to ensure that inhibition was distinguishable. Final data were normalized to control levels. For complex I-III activity, the reaction was initiated with the addition of NADH, cyt c was used as final substrate and its reduction was monitored at 550 nm. For assay of complex II-III activity, succinate was added instead of NADH, and the electron transfer to cyt c was performed according to previous publications (Atamna et al., 2008). To test whether the electrons from the reduced form of MB (MBH2) can be transferred to cyt c in mitochondrial lysate, we added 10 μM 2,7-dichlorofluorescin (DCFH, Invitrogen, Carlsbad, Calif.) to the reaction system. Free radicals convert non-fluorescent DCFH to highly fluorescent DCF (Ex, 488 nm, and Em, 530 nm). In the presence of cyt c, which accepts electrons from MBH2, conversion of DCFH to DCF is decreased.

mitochondrial complex I = assay: Mitochondrial complex I activity assay (NADH dehydrogenase); type: biochemical, rat
Protocol: as §1, §2

[5] = test system: mitochondrial complex II-III; assay: Mitochondrial complex II-III activity in extracted mitochondria; type: biochemical, rat; conditions: inhibitor alone
Protocol: as §1
All mitochondrial activity assays were performed according to previous publications with minimal modifications for complex I (Lenaz et al., 2004), complex I-III, complex II, complex III, and II-III (Trounce et al., 1996). […] Complex I activity was monitored by adding NADH to the mix with or without rotenone/antimycin A. The final data were normalized to blank values at time zero. The reaction was monitored in a kinetic spectrophotometer at 340 nm. Complex I activity was measured in arbitrary units and normalized to control levels for statistical analysis. Isolated mitochondria equivalent to 40-200 μg mitochondrial protein was used for each assay, except for assays with inhibitors, when larger amount of mitochondria (3 to 5 folds) were used to ensure that inhibition was distinguishable. Final data were normalized to control levels. For complex I-III activity, the reaction was initiated with the addition of NADH, cyt c was used as final substrate and its reduction was monitored at 550 nm. […]

[6] = Mus musculus, glutamate, HT-22 cells, read-out: Protection against cell death (EC50)
[7] = glutamate, HT-22 cells, read-out: Protection against cell death (EC50)

| EC50 (HT-22 cells [1]; Mus musculus) | EC50 (HT-22 cells [3]; Mus musculus) | Compound | EC50 (HT-22 cells [2]; [6]) | Potency and efficacy of the protective action on mitochondrial membrane potential collapse (FIG. 12) (HT-22 cells [1]) | Potency and efficacy of the protective action on cell viability (FIG. 10) (HT-22 cells [2]; HT-22 cells) | Potency and efficacy of the protective action on reactive oxygen species production (FIG. 11) (HT-22 cells [3]) | further results |
| --- | --- | --- | --- | --- | --- | --- | --- |
| 45.1 nM | 84.1 nM | Clc1ccc2c(c1)Nc1ccccc1S2 [2-chlorophenothiazine] | 4.57 nM | – | – | – | – |
| – | – | CC(=O)N1c2ccc(N(C)C)cc2Sc2cc(N(C)C)ccc21 [Acetyl-MB, acetyl-methylene blue] | – | – | – | – | Ability to enhance electron transfer between complex I and III ([4]; redox center disabled by N-acetylation): completely lost its ability to enhance electron transfer |
| 3270 nM | 2150 nM | CN(C)CCCN1c2ccccc2Sc2ccc(Cl)cc21 [chlorpromazine] | 2190 nM | significantly decrease the potency and efficacy | significantly decreases the potency and efficacy | significantly decrease the potency and efficacy | – |
| 29100 nM | 84600 nM | CN(C)CCCN1c2ccccc2CCc2ccccc21 [impramine] | 51900 nM | significantly decrease the potency and efficacy | significantly decreases the potency and efficacy | significantly decrease the potency and efficacy | – |
| – | – | Cc1cc2nc3ccc(N(C)C)cc3nc2cc1N.Cl [neutral red] | – | significantly decrease the potency and efficacy | significantly decrease the potency and efficacy | significantly decrease the potency and efficacy | EC50 (HT-22 cells [1]): 8960 nM; EC50 (HT-22 cells [2]; [7]): 5840 nM; EC50 (HT-22 cells [3]): 15800 nM |
| 214 nM | 9690 nM | CC(CN1c2ccccc2Sc2ccccc21)N(C)C (stereo not drawn) [promethazine] | 2060 nM | significantly decrease the potency and efficacy | significantly decreases the potency and efficacy | significantly decrease the potency and efficacy | – |
| – | – | C=C(C)[C@H]1Cc2c(ccc3c2O[C@@H]2COc4cc(OC)c(OC)cc4[C@@H]2C3=O)O1 [rotenone] | – | – | – | – | Inhibition of complex I-III activity [4]: 90%; Inhibition of complex I activity (mitochondrial complex I; CoQ1 as substrate): above 95%; Inhibition of complex I activity (mitochondrial complex I; MB as substrate, maximum rotenone concentrations): 26.7% |
| – | – | Cc1cc2nc3ccc(N(C)C)cc3[s+]c2cc1N [toluidine blue] | – | – | – | – | EC50 (HT-22 cells [1]): 1.54 nM; EC50 (HT-22 cells [2]; [7]): 1.75 nM; EC50 (HT-22 cells [3]): 0.106 nM |
| – | – | antimycin A | – | – | – | – | Inhibition of complex I-III activity [4]: 70%; Inhibition of complex II-III activity [5]: 80% |

| Compound | EC50 (HT-22 cells [1]; Mus musculus) | EC50 (HT-22 cells [3]; Mus musculus) | EC50 (HT-22 cells [2]; [6]) | Potency and efficacy of the protective action on mitochondrial membrane potential collapse (FIG. 12) (HT-22 cells [1]) | Potency and efficacy of the protective action on cell viability (FIG. 10) (HT-22 cells [2]; HT-22 cells) | Potency and efficacy of the protective action on reactive oxygen species production (FIG. 11) (HT-22 cells [3]) | further results |
| --- | --- | --- | --- | --- | --- | --- | --- |
| C1=Cc2ccccc2Nc2ccccc21 [Iminostilbene] | 61.7 nM | 484 nM | 189 nM | – | – | – | – |
| c1ccc2c(c1)Nc1ccccc1S2 [phenothiazine] | 21.2 nM | 57.2 nM | – | – | – | – | EC50 (HT-22 cells [2]; Mus musculus, HT-22, read-out: Protection against cell death (EC50)): 19 nM |
